# Measurements as given in publication PMC5218480 (PLoS ONE, 2017).
# System: MV-4-11 cells
# Assay: Gene expression microarray analysis (Affymetrix PrimeView) and GSEA
# Format: cell-based, human
# Set-up: RFU PODN (11730768_x_at) / Fold change /veh PODN (11730768_x_at) / RFU LINC00158 (11744669_a_at) / Fold change /veh LINC00158 (11744669_a_at) / RFU DUSP10 (11751237_a_at) / Fold change /veh DUSP10 (11751237_a_at) / RFU ID3 (11757404_x_at) / Fold change /veh ID3 (11757404_x_at) / RFU PLEKHG5 (11737974_s_at) / Fold change /veh PLEKHG5 (11737974_s_at) / RFU LRRC4B (11730491_at) / Fold change /veh LRRC4B (11730491_at) / RFU GIMAP4 (11747438_a_at) / Fold change /veh GIMAP4 (11747438_a_at) / RFU KRT8 (11758183_x_at) / Fold change /veh KRT8 (11758183_x_at) / RFU CNN1 (11734310_a_at) / Fold change /veh CNN1 (11734310_a_at) / RFU VPS37D (11726825_at) / Fold change /veh VPS37D (11726825_at) / RFU C10orf10 (11716522_x_at) / Fold change /veh C10orf10 (11716522_x_at) / RFU KIR2DL2 /// KIR2DL4 /// KIR2DL5A /// KIR2DL5B /// KIR2DS1 /// KIR2DS2 /// KIR2DS3 /// KIR2DS4 /// KIR3DL3 /// KIR3DL3 /// KIR3DS1 (11738374_at) / Fold change /veh KIR2DL2 /// KIR2DL4 /// KIR2DL5A /// KIR2DL5B /// KIR2DS1 /// KIR2DS2 /// KIR2DS3 /// KIR2DS4 /// KIR3DL3 /// KIR3DL3 /// KIR3DS1 (11738374_at) / RFU C1QL1 (11718748_at) / Fold change /veh C1QL1 (11718748_at) / RFU TMPRSS4 (11747572_a_at) / Fold change /veh TMPRSS4 (11747572_a_at) / RFU HAMP (11756126_x_at) / Fold change /veh HAMP (11756126_x_at) / RFU RNFT2 (11725882_a_at) / Fold change /veh RNFT2 (11725882_a_at) / RFU NR4A2 (11747474_a_at) / Fold change /veh NR4A2 (11747474_a_at) / RFU ABCC12 (11746883_a_at) / Fold change /veh ABCC12 (11746883_a_at) / RFU TMEM136 (11760407_x_at) / Fold change /veh TMEM136 (11760407_x_at) / RFU CLDN22 /// WWC2 (11732394_at) / Fold change /veh CLDN22 /// WWC2 (11732394_at) / RFU HLA-DPB1 (11760878_x_at) / Fold change /veh HLA-DPB1 (11760878_x_at) / RFU SPINT1 (11716480_a_at) / Fold change /veh SPINT1 (11716480_a_at) / RFU GAP43 (11754022_s_at) / Fold change /veh GAP43 (11754022_s_at) / RFU A4GNT (11735810_at) / Fold change /veh A4GNT (11735810_at) / RFU PRB3 (11715151_x_at) / Fold change /veh PRB3 (11715151_x_at) / RFU TUBB4B (11761932_at) / Fold change /veh TUBB4B (11761932_at) / RFU CAPN14 (11732068_a_at) / Fold change /veh CAPN14 (11732068_a_at) / RFU TMCC2 (11721928_a_at) / Fold change /veh TMCC2 (11721928_a_at) / RFU IRGQ (11745062_a_at) / Fold change /veh IRGQ (11745062_a_at) / RFU FAM174B (11720279_a_at) / Fold change /veh FAM174B (11720279_a_at) / RFU TMPRSS4 (11748680_a_at) / Fold change /veh TMPRSS4 (11748680_a_at) / RFU FAM212B (11763350_a_at) / Fold change /veh FAM212B (11763350_a_at) / RFU PLEKHG5 (11743358_a_at) / Fold change /veh PLEKHG5 (11743358_a_at) / RFU ZSCAN30 (11745921_a_at) / Fold change /veh ZSCAN30 (11745921_a_at) / RFU CMKLR1 (11741424_a_at) / Fold change /veh CMKLR1 (11741424_a_at) / RFU LOC101060620 /// MAPK8IP1 (11723275_at) / Fold change /veh LOC101060620 /// MAPK8IP1 (11723275_at) / RFU SPTSSB (11747773_x_at) / Fold change /veh SPTSSB (11747773_x_at) / RFU PRSS12 (11739890_at) / Fold change /veh PRSS12 (11739890_at) / RFU BIN1 (11741810_x_at) / Fold change /veh BIN1 (11741810_x_at) / RFU WNT11 (11732464_a_at) / Fold change /veh WNT11 (11732464_a_at) / RFU C10orf10 (11716521_a_at) / Fold change /veh C10orf10 (11716521_a_at) / RFU C5orf56 (11738089_at) / Fold change /veh C5orf56 (11738089_at) / RFU CYB561 (11721691_x_at) / Fold change /veh CYB561 (11721691_x_at) / RFU ANKRD19P (11752326_a_at) / Fold change /veh ANKRD19P (11752326_a_at) / RFU OR2T12 /// OR2T33 /// OR2T8 (11738714_s_at) / Fold change /veh OR2T12 /// OR2T33 /// OR2T8 (11738714_s_at) / RFU VCAN (11748164_a_at) / Fold change /veh VCAN (11748164_a_at) / RFU JSRP1 (11732532_at) / Fold change /veh JSRP1 (11732532_at) / RFU KRTAP10-11 (11738290_x_at) / Fold change /veh KRTAP10-11 (11738290_x_at) / RFU MYO3A (11730013_a_at) / Fold change /veh MYO3A (11730013_a_at) / RFU EBF3 (11725865_a_at) / Fold change /veh EBF3 (11725865_a_at) / RFU CAMK2N1 (11719241_x_at) / Fold change /veh CAMK2N1 (11719241_x_at) / RFU C5orf56 (11738088_a_at) / Fold change /veh C5orf56 (11738088_a_at) / RFU OLFML3 (11715873_a_at) / Fold change /veh OLFML3 (11715873_a_at) / RFU LOC100653217 /// NTM (11731650_a_at) / Fold change /veh LOC100653217 /// NTM (11731650_a_at) / RFU MAPK11 (11762145_a_at) / Fold change /veh MAPK11 (11762145_a_at) / RFU FIZ1 (11724087_x_at) / Fold change /veh FIZ1 (11724087_x_at) / RFU OASL (11726364_x_at) / Fold change /veh OASL (11726364_x_at) / RFU SOX15 (11748057_x_at) / Fold change /veh SOX15 (11748057_x_at) / RFU CD79A (11719716_a_at) / Fold change /veh CD79A (11719716_a_at) / RFU HIST1H1D (11736915_at) / Fold change /veh HIST1H1D (11736915_at) / RFU CASKIN2 (11723855_a_at) / Fold change /veh CASKIN2 (11723855_a_at) / RFU LOC730098 (11760151_x_at) / Fold change /veh LOC730098 (11760151_x_at) / RFU OR4N2 (11742367_at) / Fold change /veh OR4N2 (11742367_at) / RFU PRRT2 (11749266_a_at) / Fold change /veh PRRT2 (11749266_a_at) / RFU SNX32 (11753110_a_at) / Fold change /veh SNX32 (11753110_a_at) / RFU CDHR5 (11726645_a_at) / Fold change /veh CDHR5 (11726645_a_at) / RFU RCAN1 (11760418_a_at) / Fold change /veh RCAN1 (11760418_a_at) / RFU FAM167A (11723789_a_at) / Fold change /veh FAM167A (11723789_a_at) / RFU FAM26E (11764081_at) / Fold change /veh FAM26E (11764081_at) / RFU ISYNA1 (11749810_s_at) / Fold change /veh ISYNA1 (11749810_s_at) / RFU ACY1 (11761880_at) / Fold change /veh ACY1 (11761880_at) / RFU 11764098_at / Fold change /veh 11764098_at / RFU SAMD14 (11745864_x_at) / Fold change /veh SAMD14 (11745864_x_at) / RFU NPB (11741838_a_at) / Fold change /veh NPB (11741838_a_at) / RFU TMPRSS6 (11731388_a_at) / Fold change /veh TMPRSS6 (11731388_a_at) / RFU KRTAP10-2 (11738614_at) / Fold change /veh KRTAP10-2 (11738614_at) / RFU ARHGAP8 /// PRR5-ARHGAP8 (11727945_x_at) / Fold change /veh ARHGAP8 /// PRR5-ARHGAP8 (11727945_x_at) / RFU KRTAP5-7 /// NADSYN1 (11734609_at) / Fold change /veh KRTAP5-7 /// NADSYN1 (11734609_at) / RFU RASL12 (11751679_a_at) / Fold change /veh RASL12 (11751679_a_at) / RFU CDKN2B (11736163_a_at) / Fold change /veh CDKN2B (11736163_a_at) / RFU PRF1 (11729649_at) / Fold change /veh PRF1 (11729649_at) / RFU, ZNF638 /// ZNF638-IT1 / Fold change vs veh, ZNF638 /// ZNF638-IT1 / RFU, PANK3 / Fold change vs veh, PANK3 / RFU, SH3YL1 / Fold change vs veh, SH3YL1 / RFU, ZEB2 / Fold change vs veh, ZEB2 / RFU, NRIP1 / Fold change vs veh, NRIP1 / RFU, PTTG1IP / Fold change vs veh, PTTG1IP / RFU, CAPN2 / Fold change vs veh, CAPN2 / RFU, MED14 / Fold change vs veh, MED14 / RFU, SNORA58 / Fold change vs veh, SNORA58 / RFU, C1orf63 / Fold change vs veh, C1orf63 / RFU, LRRFIP1 / Fold change vs veh, LRRFIP1 / RFU, NDUFAF7 / Fold change vs veh, NDUFAF7 / RFU, SLC12A2 / Fold change vs veh, SLC12A2 / RFU, IBTK / Fold change vs veh, IBTK / RFU, ESF1 / Fold change vs veh, ESF1 / Fold change vs veh, TMEM50B / RFU, TAOK1 / Fold change vs veh, TAOK1 / RFU, ACBD3 / Fold change vs veh, ACBD3 / RFU, TMA16 / Fold change vs veh, TMA16 / RFU, RWDD3 / Fold change vs veh, RWDD3 / RFU, BCAT1 / Fold change vs veh, BCAT1 / RFU, EDEM3 / Fold change vs veh, EDEM3 / RFU, TMEM33 / Fold change vs veh, TMEM33 / RFU, WDR75 / Fold change vs veh, WDR75 / RFU, AHCTF1 / Fold change vs veh, AHCTF1 / RFU, TFRC / Fold change vs veh, TFRC / RFU, ZDHHC17 / Fold change vs veh, ZDHHC17 / RFU, NOM1 / Fold change vs veh, NOM1 / RFU, ARL8B / Fold change vs veh, ARL8B / RFU, ZBTB11 / Fold change vs veh, ZBTB11 / RFU, TAMM41 / Fold change vs veh, TAMM41 / RFU, KIAA1704 /// LOC100996395 / Fold change vs veh, KIAA1704 /// LOC100996395 / RFU, ING1 / Fold change vs veh, ING1 / RFU, TRMT61B / Fold change vs veh, TRMT61B / RFU, FUBP3 / Fold change vs veh, FUBP3 / RFU, TP53 / Fold change vs veh, TP53 / RFU, TNKS2 / Fold change vs veh, TNKS2 / RFU, ZFP14 / Fold change vs veh, ZFP14 / RFU, ACTR2 / Fold change vs veh, ACTR2 / RFU, PPP3R1 / Fold change vs veh, PPP3R1 / RFU, PIK3R1 / Fold change vs veh, PIK3R1 / RFU, HNRNPA1 / Fold change vs veh, HNRNPA1 / RFU, RNF170 / Fold change vs veh, RNF170 / RFU, ZNF28 / Fold change vs veh, ZNF28 / RFU, RNGTT / Fold change vs veh, RNGTT / RFU, OGT / Fold change vs veh, OGT / RFU, BRD1 / Fold change vs veh, BRD1 / RFU, MARS / Fold change vs veh, MARS / RFU, ZNF655 / Fold change vs veh, ZNF655 / RFU, FAHD1 / Fold change vs veh, FAHD1 / RFU, BDP1 / Fold change vs veh, BDP1 / RFU, LRRCC1 / Fold change vs veh, LRRCC1 / RFU, ARID1A / Fold change vs veh, ARID1A / RFU, ZNF146 / Fold change vs veh, ZNF146 / RFU, ZNF330 / Fold change vs veh, ZNF330 / RFU, GPN3 / Fold change vs veh, GPN3 / RFU, C9orf123 / Fold change vs veh, C9orf123 / RFU, N4BP2L2 / Fold change vs veh, N4BP2L2 / RFU, ARFIP1 / Fold change vs veh, ARFIP1 / RFU, FAM179B / Fold change vs veh, FAM179B / RFU, BCL10 / Fold change vs veh, BCL10 / RFU, UHRF1BP1L / Fold change vs veh, UHRF1BP1L / RFU, BET1 / Fold change vs veh, BET1 / RFU, CNOT2 / Fold change vs veh, CNOT2 / RFU, ZNF268 / Fold change vs veh, ZNF268 / Fold change vs veh, ZNF507 / RFU, DGCR2 / Fold change vs veh, DGCR2 / RFU, WDSUB1 / Fold change vs veh, WDSUB1 / Fold change vs veh, HSP90B1 /// MIR3652 / RFU, ADSS / Fold change vs veh, ADSS / RFU, GK / Fold change vs veh, GK / RFU, ZNF148 / Fold change vs veh, ZNF148 / RFU, TAF9 / Fold change vs veh, TAF9 / RFU, SLC1A5 / Fold change vs veh, SLC1A5 / RFU, SLMO2 / Fold change vs veh, SLMO2 / RFU, ABCC4 / Fold change vs veh, ABCC4 / RFU, LOC101060439 /// RAP1B / Fold change vs veh, LOC101060439 /// RAP1B / RFU, RFX7 / Fold change vs veh, RFX7 / RFU, GTPBP10 / Fold change vs veh, GTPBP10 / RFU, CNEP1R1 / Fold change vs veh, CNEP1R1 / RFU, BIVM-ERCC5 /// ERCC5 / Fold change vs veh, BIVM-ERCC5 /// ERCC5 / RFU, ILF3 / Fold change vs veh, ILF3 / RFU 11762660_at / Fold change /veh 11762660_at / RFU VCAN (11757783_s_at) / Fold change /veh VCAN (11757783_s_at) / RFU DDX43 (11728927_at) / Fold change /veh DDX43 (11728927_at) / RFU KRT8 (11758188_x_at) / Fold change /veh KRT8 (11758188_x_at) / RFU NKD1 (11759106_at) / Fold change /veh NKD1 (11759106_at) / RFU SRD5A1 (11742802_a_at) / Fold change /veh SRD5A1 (11742802_a_at) / RFU TPSAB1 /// TPSB2 (11721975_s_at) / Fold change /veh TPSAB1 /// TPSB2 (11721975_s_at) / RFU GSTM3 (11746129_a_at) / Fold change /veh GSTM3 (11746129_a_at) / RFU IL23R (11737362_x_at) / Fold change /veh IL23R (11737362_x_at) / RFU TMEM51 (11727254_a_at) / Fold change /veh TMEM51 (11727254_a_at) / RFU PIWIL2 (11732686_x_at) / Fold change /veh PIWIL2 (11732686_x_at) / RFU ORM1 (11744905_x_at) / Fold change /veh ORM1 (11744905_x_at) / RFU CCDC152 (11743942_at) / Fold change /veh CCDC152 (11743942_at) / RFU ECM1 (11717891_a_at) / Fold change /veh ECM1 (11717891_a_at) / RFU IL23R (11748794_a_at) / Fold change /veh IL23R (11748794_a_at) / RFU TNFAIP8L3 (11732012_x_at) / Fold change /veh TNFAIP8L3 (11732012_x_at) / RFU MBOAT4 (11741988_at) / Fold change /veh MBOAT4 (11741988_at) / RFU 11764193_at / Fold change /veh 11764193_at / RFU TMEM53 (11763286_at) / Fold change /veh TMEM53 (11763286_at) / RFU MAGEB2 (11727129_at) / Fold change /veh MAGEB2 (11727129_at) / RFU TMEM200A (11744735_a_at) / Fold change /veh TMEM200A (11744735_a_at) / RFU CCDC152 (11751479_a_at) / Fold change /veh CCDC152 (11751479_a_at) / RFU FAM211A (11726209_a_at) / Fold change /veh FAM211A (11726209_a_at) / RFU RGS16 (11746705_a_at) / Fold change /veh RGS16 (11746705_a_at) / RFU VCAN (11755009_s_at) / Fold change /veh VCAN (11755009_s_at) / RFU RHOB (11743442_s_at) / Fold change /veh RHOB (11743442_s_at) / RFU RGS16 (11720943_a_at) / Fold change /veh RGS16 (11720943_a_at) / RFU RGS16 (11720944_at) / Fold change /veh RGS16 (11720944_at) / RFU, VPS4B / Fold change vs veh, VPS4B / RFU, CREB1 / Fold change vs veh, CREB1 / RFU, DNAJC13 / Fold change vs veh, DNAJC13 / RFU, GNAQ / Fold change vs veh, GNAQ / RFU, CDK5R1 / Fold change vs veh, CDK5R1 / RFU, ZRANB3 / Fold change vs veh, ZRANB3 / RFU, CUL4A / Fold change vs veh, CUL4A / RFU, CCNY / Fold change vs veh, CCNY / RFU, UFL1 / Fold change vs veh, UFL1 / RFU, COG3 / Fold change vs veh, COG3 / RFU, DIAPH2 / Fold change vs veh, DIAPH2 / RFU, SKA2 / Fold change vs veh, SKA2 / RFU, AFF3 / Fold change vs veh, AFF3 / RFU, LMF1 / Fold change vs veh, LMF1 / RFU, IPO11 / Fold change vs veh, IPO11 / RFU, DFFB / Fold change vs veh, DFFB / RFU, FOXP1 / Fold change vs veh, FOXP1 / RFU, CARD8 / Fold change vs veh, CARD8 / RFU, STRN3 / Fold change vs veh, STRN3 / RFU, ADK / Fold change vs veh, ADK / RFU, RASSF2 / Fold change vs veh, RASSF2 / RFU, WIPF1 / Fold change vs veh, WIPF1 / RFU, LARP1B / Fold change vs veh, LARP1B / RFU, RASA1 / Fold change vs veh, RASA1 / RFU, RB1 / Fold change vs veh, RB1 / RFU, PPFIA1 / Fold change vs veh, PPFIA1 / RFU, MAT2A / Fold change vs veh, MAT2A / RFU, CCT5 / Fold change vs veh, CCT5 / RFU, WDR92 / Fold change vs veh, WDR92 / RFU, CUX1 / Fold change vs veh, CUX1 / RFU, TTC7A / Fold change vs veh, TTC7A / RFU, TMEM135 / Fold change vs veh, TMEM135 / RFU, DEPTOR / Fold change vs veh, DEPTOR / RFU, CPM / Fold change vs veh, CPM / RFU, DNAJB6 / Fold change vs veh, DNAJB6 / RFU, CACNA2D3 / Fold change vs veh, CACNA2D3 / RFU, DTX4 / Fold change vs veh, DTX4 / RFU, TFCP2 / Fold change vs veh, TFCP2 / RFU, GMCL1 /// GMCL1P1 / Fold change vs veh, GMCL1 /// GMCL1P1 / RFU, AEBP2 / Fold change vs veh, AEBP2 / RFU, SNHG1 /// SNORD22 /// SNORD25 /// SNORD26 /// SNORD27 /// SNORD28 /// SNORD29 /// SNORD31 / Fold change vs veh, SNHG1 /// SNORD22 /// SNORD25 /// SNORD26 /// SNORD27 /// SNORD28 /// SNORD29 /// SNORD31 / Fold change (Aza/veh), C12orf56 (ProbeSet 11735607_a_at) / Fold change (ACY-1035/veh), C12orf56 (ProbeSet 11735607_a_at) / Fold change (Aza/veh), FGFR1OP (ProbeSet 11751329_s_at) / Fold change (ACY-1035/veh), FGFR1OP (ProbeSet 11751329_s_at) / Fold change (Aza/veh), VPS36 (ProbeSet 11739960_a_at) / Fold change (ACY-1035/veh), VPS36 (ProbeSet 11739960_a_at) / RFU SYPL1 (11715823_x_at) / Fold change /veh SYPL1 (11715823_x_at) / RFU IGFBP7 (11715501_s_at) / Fold change /veh IGFBP7 (11715501_s_at) / RFU REEP3 (11722064_at) / Fold change /veh REEP3 (11722064_at) / RFU IGLL1 (11728026_x_at) / Fold change /veh IGLL1 (11728026_x_at): dose or concentration left out as unconfirmed
# Conditions: ProbeSet 11725100_s_at; LIST B
structure (smiles),measurement,value
Nc1ccc(-c2cccs2)cc1NC(=O)c1ccc2c(c1)cc(C1CC1)n2CCN1CCOCC1 [ACY-1035],"RFU, ESF1",97.73 RFU
